{"source": "paper PMC9230797", "about": "“Integration of a Physiologically Based Pharmacokinetic and Pharmacodynamic Model for Tegoprazan and Its Metabolite: Application for Predicting Food Effect and Intragastric pH Alterations” (Pharmaceutics, 2022)", "key": {"[1]": {"assay": "Microsomal metabolic stability in human liver microsomes", "assay_type": "in vitro ADME", "experimental": "The NADPH-generating system, glucose 6-phosphate (3.3 mM), 0.1 M potassium phosphate (pH 7.4), and human liver microsomes (HLMs; 0.5 mg/mL) were combined and incubated at 37 °C for 5 min. The organic content in the reaction mixture was 0.01% DMSO and less than 1% acetonitrile. Then, 1 μM tegoprazan and M1 were added to the reaction tube (total volume: 160 μL) and incubated at 37 °C for 0, 5, 15, 30, and 60 min. To terminate the reaction, 320 μL of acetonitrile containing an internal standard (100 ng/mL carbamazepine) was added to each sample. All experiments were performed in triplicate. The samples were vortexed for 5 min and centrifuged at 3000 rpm at 4 °C for 10 min. The concentrations of tegoprazan and M1 were determined by liquid chromatography–tandem mass spectrometry (LC–MS/MS). The concentrations of tegoprazan and M1 at 0 min were used to assess metabolism by HLMs based on changes in drug concentration over time. The terminal slope of linear regression was used to calculate the intrinsic clearance (CLint) of tegoprazan and M1. For the in vitro HLM system, CLint was calculated using Equation (1). CLint,mic (μL/min/mg protein) = k × Vincubation/Cincubation(1) where Vincubation is the incubation volume and Cincubation is the concentration of the microsomal protein."}, "[2]": {"assay": "PBPK model prediction of plasma PK (SimCYP simulator)", "parameters": "species or system human", "from_the_text": "(§1) The tegoprazan and M1 PBPK models were developed using SimCYP® simulator, version 20 (Certara, Princeton, NJ, USA). Compound libraries were incorporated into an in vitro dataset, including the microsomal clearance of tegoprazan and M1. Observed PK parameters were obtained from the aforementioned clinical studies (Table 1 and Table 2).\n(§2) The absorption of tegoprazan was applied to the advanced dissolution, absorption, and metabolism (ADAM) model, and the diffusion layer model (DLM) built into SimCYP® was applied to the considered formulation and pH-dependent solubility of tegoprazan. The permeability of tegoprazan was determined by a Caco-2 permeability assay and optimized by parameter estimation. Caco-2 permeability was optimized such that the predicted concentration–time profiles were fitted to clinical study data. The metabolite was generated by the metabolism of the parent drug; therefore, absorption was not considered.\nThe tissue distribution in the PBPK model was predicted by the distribution model (e.g., Rodger and Rowland method, Poulin and Theil method) and the tissue:plasma partition coefficient (Kp) scalar for specific organ or global values. Predicted systemic distribution was expressed as the volume of distribution in a steady state (Vss). The Vd values of the clinical study were applied to the initial model of tegoprazan, and parameter estimation was used to determine the optimized Kp scalar fitted to the observed data. The Rodger and Rowland method (method 2) was applied to consider the weak base property and distribution of the neutral and ionic forms. The minimal PBPK model was applied to the M1 distribution module to reduce the complexity. The volume of a single adjusting compartment (Vsac), non-physiological compartment, input rate to SAC (kin), and elimination rate from SAC (kout) were estimated using the parameter estimation module within SimCYP®.\nThe elimination profiles of tegoprazan and M1 were obtained from in vitro, in vivo, and in silico predictions. Optimized in-house intrinsic clearance for CYPs (CLint,rCYPs), and human liver microsomal and cytosolic (HLM and HLC) clearance were applied to the elimination module of the tegoprazan model. Observed or estimated renal and biliary clearance were applied to the tegoprazan and M1 models. Whole-organ metabolic clearance, using the optimized value for the in vitro assay results, was applied to the M1 model.\nThe virtual dosing regimen was set to a single oral dose of 100 mg tegoprazan, to match that of the observed data. The simulation conditions were set for 100 virtual subjects who participated in 10 virtual clinical studies (1000 volunteers). The age range was 20 to 40 years, and the male-to-female ratio was 1:1. The predicted and observed PK parameters were compared to evaluate the model prediction results. […] If the predicted vs. observed ratio and its 95% CI were within the 30% range (0.7–1.3), the model was considered to fit well.\nPostprandial PK profiles were predicted using an established model. Concentration–time profiles were obtained following a single oral dose (50 mg) of tegoprazan in the fasting state or 30 min after a high-fat diet. The predicted AUClast, Cmax, and Tmax values were compared with those of a previous clinical study."}, "[3]": {"assay": "PBPK model input parameters predicted in SimCYP or obtained by parameter estimation", "conditions": "human; initial model value; Vd of the clinical study applied; read-out: Vss", "from_the_text": "as §1, §2\nThe tissue distribution in the PBPK model was predicted by the distribution model (e.g., Rodger and Rowland method, Poulin and Theil method) and the tissue:plasma partition coefficient (Kp) scalar for specific organ or global values. Predicted systemic distribution was expressed as the volume of distribution in a steady state (Vss). […]"}, "[4]": {"conditions": "At 30 min after a high-fat meal, single 50 mg"}, "[5]": {"conditions": "single 100 mg tegoprazan, (95% confidence interval)"}}}
{"compound": "Cc1nc2cc(C(=O)N(C)C)cc(O[C@H]3CCOc4cc(F)cc(F)c43)c2[nH]1", "note": "[tegoprazan]", "values": [{"measurement": "HLM intrinsic clearance (CLint,HLM)", "setting": "[1]; 1 μM, HLM 0.5 mg/mL with NADPH, experimental data", "value": 15.96, "unit": "μL/min/mg protein"}, {"measurement": "percentage remaining after incubation", "setting": "[1]; control sample without NADPH", "value": "99.54% ± 5.32"}, {"measurement": "microsomal CLint at 1 μM", "setting": "[1]; human, human liver microsomes, pH 7.4, 1 μM, HLM 0.5 mg/mL with NADPH, experimental data, read-out: HLM intrinsic clearance (CLint,HLM)", "value": 16, "unit": "µL/min/mg"}, {"measurement": "increase of predicted Cmax at Day 7 compared with Day 1", "setting": "[2]; 100 mg once daily", "value": "approximately 1.84%"}, {"measurement": "AUC0–24 h Ratio (Predicted/Observed)", "setting": "[2]; [4]", "value": "0.88 (0.43–1.32)"}, {"measurement": "Cmax Ratio (Predicted/Observed)", "setting": "[2]; [4]", "value": "0.96 (0.32–1.59)"}, {"measurement": "AUC0–24 h Ratio (Predicted/Observed)", "setting": "[2]; Fast, single 50 mg", "value": "0.89 (0.45–1.33)"}, {"measurement": "Cmax Ratio (Predicted/Observed)", "setting": "[2]; Fast, single 50 mg", "value": "0.85 (0.62–1.09)"}, {"measurement": "decrease of predicted mean Cmax after a high-fat diet vs fasted state", "setting": "[2]; single 50 mg", "value": 31.3, "unit": "%"}, {"measurement": "AUC0–24 h Ratio (Predicted/Observed)", "setting": "[2]; [5]", "value": "0.90 (0.85–0.96)"}, {"measurement": "CL Ratio (Predicted/Observed)", "setting": "[2]; [5]", "value": "1.25 (1.17–1.34)"}, {"measurement": "Cmax Ratio (Predicted/Observed)", "setting": "[2]; [5]", "value": "0.88 (0.80–1.00)"}, {"measurement": "Vd", "setting": "[3]", "value": 1.55, "unit": "L/kg"}]}
